Converted amounts (≈) assume the structure as drawn.
Key:
[1] = Selectivity index, ratio of CC50 for rat L6 cells to IC50 for chloroquine and pyrimethamine resistant Plasmodium falciparum K1; assay type: functional
[2] = test system: Trypanosoma brucei rhodesiense; assay: Antitrypanosomal activity against Trypanosoma brucei rhodesiense STIB900 bloodstream forms after 72 hrs by alamar blue assay; assay type: functional, organism-based; conditions: STIB900, 72 h
[3] = test system: L6; assay: Cytotoxicity against rat L6 cells after 72 hrs by alamar blue assay; assay type: cell-based; conditions: L6, 72 h
[4] = Selectivity index, ratio of CC50 for rat L6 cells to IC50 for Trypanosoma brucei rhodesiense STIB900; assay type: functional
[5] = test system: Plasmodium falciparum; assay: Antiplasmodial activity against chloroquine and pyrimethamine resistant Plasmodium falciparum K1 infected in human red blood cells assessed as reduction in parasite viability after 48 hrs by [3H]-hypoxanthine incorporation assay; assay type: functional, organism-based
[6] = test system: Enterococcus faecalis; assay: Antibacterial activity against Enterococcus faecalis ATCC 14506 at 100 ug after 24 hrs; assay type: functional; conditions: ATCC 14506, 24 h, read-out: DIZ
[7] = test system: Escherichia coli; assay: Antibacterial activity against Escherichia coli ATCC 25922 at 100 ug after 24 hrs; assay type: functional; conditions: ATCC 25922, 24 h, read-out: DIZ
[8] = test system: Staphylococcus aureus; assay: Antibacterial activity against Staphylococcus aureus ATCC 25923 at 100 ug after 24 hrs; assay type: functional; conditions: ATCC 25923, 24 h, read-out: DIZ
[9] = test system: Plasmodium berghei; assay: Antiplasmodial activity against GFP-transfected Plasmodium berghei ANKA infected in NMRI mouse assessed as mean survival day at 10 mg/kg, ip administered 4, 24, 48 and 72 hrs post infection (reference value: 4 days); assay type: functional; conditions: route intraperitoneal
[10] = test system: Plasmodium berghei; assay: Antiplasmodial activity against GFP-transfected Plasmodium berghei ANKA infected in NMRI mouse assessed as reduction in parasitemia at 10 mg/kg, ip administered 4, 24, 48 and 72 hrs post infection by FACS analysis; assay type: functional; conditions: route intraperitoneal
[11] = test system: Mycolicibacterium smegmatis; assay: Antimycobacterial activity against Mycobacterium smegmatis ATCC 14468 assessed as inhibition of bacterial growth after 72 hrs by MTT dye based microbroth dilution assay; assay type: functional; conditions: ATCC 14468, 72 h

Cl.O=C1NCC2(N3CCOCC3)CC(c3ccccc3)C1C(c1ccccc1)C2 (stereo not drawn)
Ratio IC50 [1]: 18 | IC50 [2]: 128 µM | IC50 [3]: > 239 µM | Ratio IC50 [4]: 1.9 | IC50 [5]: > 13.3 µM

Cl.c1ccc(C2CC3(N4CCCC4)CCNC2C(c2ccccc2)C3)cc1 (racemic)
Ratio IC50 [4]: 103

Cl.Clc1ccc(C2CC3(N4CCCCC4)CCNC2C(c2ccc(Cl)cc2)C3)cc1 (racemic)
Ratio IC50 [4]: 124

Cl.c1ccc(C2CC3(N4CCCCC4)CCNC2C(c2ccccc2)C3)cc1 (racemic)
Ratio IC50 [4]: 13.7

Cl.O=C1CC2(N3CCOCC3)CC(c3ccccc3)C(N1)C(c1ccccc1)C2 (racemic)
Ratio IC50 [1]: 18 | IC50 [2]: 138 µM | IC50 [3]: > 239 µM | Ratio IC50 [4]: 1.7 | IC50 [5]: > 13.3 µM

CC1(C)S[C@@H]2[C@H](NC(=O)Cc3ccccc3)C(=O)N2[C@H]1C(=O)O [PENICILLIN G]
zone of inhibition at 100 µg/disc [6]: 20 mm | zone of inhibition at 100 µg/disc [7]: 15 mm | zone of inhibition at 100 µg/disc [8]: 30 mm

C[C@@H]1CC[C@H]2[C@@H](C)C(=O)O[C@@H]3O[C@@]4(C)CC[C@@H]1[C@]32OO4 [ARTEMISININ]
IC50 [5]: 0.0064 µM

Cl.O=C1CC2(N3CCCC3)CC(c3ccccc3)C(N1)C(c1ccccc1)C2 (racemic)
Ratio IC50 [1]: 28.5 | Ratio IC50 [4]: 6.6

Cl.c1ccc(C2CC3(N4CCOCC4)CNCC2C(c2ccccc2)C3)cc1 (racemic)
Ratio IC50 [1]: 66.63 | IC50 [2]: 3.84 µM | IC50 [3]: 43.3 µM | Ratio IC50 [4]: 11.3 | IC50 [5]: 0.65 µM

CN(C)C12CC(=O)NC(C(c3ccccc3)C1)C(c1ccccc1)C2.Cl (racemic)
Ratio IC50 [4]: 7.1

CCN(CC)CCCC(C)Nc1ccnc2cc(Cl)ccc12 (stereo not drawn) [CHLOROQUINE]
MSD [9]: 20 days | inhibition in vivo at 10 mg/kg [10]: 99.6%

NNC(=O)c1ccncc1 [ISONIAZID]
MIC [11]: 4 µg/mL (≈ 29.2 µM)

Cl.c1ccc(C2CC3(N4CCCCC4)CNCC2C(c2ccccc2)C3)cc1 (racemic)
Ratio IC50 [1]: 163.1 | IC50 [2]: 2.02 µM | IC50 [3]: 122 µM | Ratio IC50 [4]: 60.5 | IC50 [5]: 0.75 µM

Reference: ChEMBL document CHEMBL3400138, “Synthesis of 3-azabicyclo[3.2.2]nonanes and their antiprotozoal activities” (Bioorg Med Chem Lett, 2015)
